Laboratory results: patent publication US10100077B2, “6-aryl-9-glycosylpurines and use thereof” (UNIVERZITA PALACKEHO V OLOMOUCI, priority 2014, dated 2018)

Key:
[1] = test system: skin fibroblasts BJ and keratinocytes HaCaT; test: MTT in vitro cytotoxicity test for skin cells; format: cell-based; details: Homo sapiens; MTT, 72 hour treatment, BJ and HaCaT, maximal concentration 50 microM
Procedure, shortened: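 BJ fibroblasts and HaCaT keratinocytes (~5,000 cells/well, seeded 24 h prior) exposed 72 h to sixfold dilutions from 50 microM; DMSO vehicle as negative control. MTT added at 0.5 mg/ml final for 3 h, formazan dissolved in DMSO, absorbance read at 570 nm (640 nm reference). IC50 taken from dose-response curves.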

[2] = test system: EpiDERM 3D model of epidermis; test: In vitro test of skin irritation in EpiDERM; format: cell-based
Method: EpiDERM™ is a 3D model of epidermis manufactured by Mattek company. The effects of tested substances are evaluated by MTT. 2 solutions (2 application forms) of the compounds 6-furfurylamino-9-β-D-arabinofuranosylpurine and 6-(3-methoxybenzylamino)-9-β-D-arabinofuranosylpurine in concentrations 1 mM a 200 microM in 0.5% DMSO/99.5% PBS were evaluated according to a standard protocol “INVITRO EpiDerm™ SKIN IRRITATION TEST”. After a preincubation of the tissues, 30 microliters of the application form solution were applied on the individual tissues. The exposition time was 60 minutes. Three tissues were used for each tested concentration as well as for controls. Following washing out of the applied solution, the tissues were incubated for 42 hour in order to allow a reparation of possible damage. In the next step, the tissue was incubated with MTT for 3 hours. The resulting formazan was extracted to isopropanol. Relative viability of the individual tissues was calculated as a percentage of viability of the average of the negative controls. Average viability of the tissues treated with 1 mM solution of the test substance was 99.3% for the compound 6-(3-methoxybenzylamino)-9-β-D-arabinofuranosylpurine and 98.0% for the compound 6-(furfurylamino)-9-β-D-arabinofuranosylpurine where 100% is an average viability of the tissues treated with the solvent only. None of the tested compounds in any of the concentrations caused any tissue damage or irritation. The compounds were evaluated as non-irritant in the tested concentrations.

COc1cccc(CNc2ncnc3c2ncn3[C@@H]2O[C@H](CO)[C@@H](O)[C@@H]2O)c1 [6-(3-methoxybenzylamino)-9-β-D-arabinofuranosylpurine]
IC50 [1]: > 50 µM | skin irritation evaluation ([2]; 1 mM and 200 microM in 0.5% DMSO/99.5% PBS): non-irritant | Average viability of the tissues ([2]; 1 mM solution, 60 minutes exposition, 100% = solvent only): 99.3%
